Measurements from ChEMBL document CHEMBL1147487, “Synthesis and evaluation of substrate-mimicking cytosolic phospholipase A2 inhibitors--reducing the lipophilicity of the arachidonyl chain isostere” (Bioorg Med Chem Lett, 2004).

Legend:
[1] = In vitro inhibition of human recombinant cytosolic phospholipase A2 (c-PLA2).
HL-60 = assay: Inhibition of [3H]Arachidonic acid production by stimulated HL60 (human leukemia) cells.; type: functional, cell-based

Row | Compound | IC50 [1] | IC50 (HL-60)
1 | O=C(COc1ccc(C(=O)O)cc1)COc1ccc(-c2noc(Cc3ccc(Cl)c(Cl)c3)n2)cc1 | 90 nM | 2700 nM
2 | CCOCCCCCCCOc1ccc(OCC(=O)COc2ccc(C(=O)O)cc2)cc1 | 1700 nM | –
3 | CN(CCc1ccccc1)C(=O)CSc1ccc(OCC(=O)COc2ccc(C(=O)O)cc2)cc1 | 34000 nM | –
4 | O=C(COc1ccc(C(=O)O)cc1)COc1ccc(C(=O)NCCCCc2ccccc2)cc1 | 20000 nM | –
5 | O=C(COc1ccc(OCCCCCc2ccco2)cc1)COc1ccc(C(=O)O)cc1 | 590 nM | 4800 nM
6 | O=C(COc1ccc(C(=O)O)cc1)COc1ccc(S(=O)(=O)CCCCCc2ccccc2)cc1 | 1000 nM | 5200 nM
7 | O=C(COc1ccc(OCc2ccc(Cl)c(Cl)c2)cc1)COc1ccc(C(=O)O)cc1 | 250 nM | 2000 nM
8 | O=C(COc1ccc(SCCCCCc2ccco2)cc1)COc1ccc(C(=O)O)cc1 | 80 nM | 1000 nM
9 | O=C(COc1ccc(C(=O)O)cc1)COc1ccc2c(c1)C(=O)N(CCCCc1ccccc1)C2=O | 180 nM | 760 nM
10 | O=C(COc1ccc(OCCCCCC2CCCO2)cc1)COc1ccc(C(=O)O)cc1 (configuration not stated) | 5200 nM | –
11 | O=C(COc1ccc(C(=O)O)cc1)COc1ccc(-c2noc(-c3ccc(Cl)c(Cl)c3)n2)cc1 | 40 nM | 4700 nM
12 | O=C(COc1ccc(OCCCCCc2ccccc2)cc1)COc1ccc(C(=O)O)cc1 | 460 nM | 2600 nM
13 | Cn1ccnc1SCCCCOc1ccc(OCC(=O)COc2ccc(C(=O)O)cc2)cc1 | 63000 nM | –
14 | O=C(COc1ccc(C(=O)O)cc1)COc1ccc2c(c1)C(=O)N(Cc1ccc(Cl)c(Cl)c1)C2=O | 560 nM | 1000 nM
15 | O=C(COc1ccc(C(=O)O)cc1)COc1ccc(-c2noc(CCCCc3ccccc3)n2)cc1 | 270 nM | 760 nM
16 | O=C(COc1ccc(SCCCCSc2nccs2)cc1)COc1ccc(C(=O)O)cc1 | 760 nM | 1100 nM
17 | O=C(COc1ccc(C(=O)O)cc1)COc1ccc(C(=O)OCCCCCc2ccccc2)cc1 | 50 nM | 1300 nM
18 | O=C(COc1ccc(SCCCCC(=O)N2CCCCC2)cc1)COc1ccc(C(=O)O)cc1 | 12000 nM | –
19 | CCCCCCCCCCOc1ccc(OCC(=O)COc2ccc(C(=O)O)cc2)cc1 | 30 nM | –
20 | O=C(COc1ccc(OCCCCSc2nc3ccccc3o2)cc1)COc1ccc(C(=O)O)cc1 | 140 nM | 1100 nM
21 | O=C(COc1ccc(C(=O)O)cc1)COc1ccc([S+]([O-])CCCCCc2ccccc2)cc1 (configuration not stated) | 1800 nM | 18000 nM
22 | O=C(COc1ccc(SCCCCCc2ccccc2)cc1)COc1ccc(C(=O)O)cc1 | 80 nM | 5800 nM
